What was measured:
[1] = Penetration and binding in hair by confocal microscopy; settings: fluorescent substance applied to hair, FIG. 6, FIG. 7
Description: A green fluorescent substance (FITC; Fluorescein isothiocyanate) was conjugated to palmitoyl-CWK, a tripeptide (i.e., palmitoyl tripeptide) covalently bound to palmitic acid at the N-terminus (fluorescent labeling) and applied to hair. After that, the change in hair structure that affects the increase in hair tensile strength was confirmed by comparing the colored areas using a confocal microscopy.
Meanwhile, for comparison of hair penetration routes, the water-soluble fluorescent substance 5-(4-Dimethylaminobenzylidene) rhodanine was applied to the hair, and the colored area (indicated in gray in FIG. 7) was confirmed using a confocal microscope.

[2] = Tensile strength of bleached hair tresses treated with test substance (MTT175); parameters: species or system human; settings: test substance 0.01 wt % in purified water and ethanol (80 wt %), about 30 minutes; FIG. 4, FIG. 5
Protocol: The compositions in Table 2 above were applied to human hair to compare tensile strength.
(§1) Specifically, bleached hair tresses (1 g, manufactured by Beaulax) were prepared. The hair tresses were washed using a basic shampoo without conditioning function, rinsed for 1 minute, and dried for 2 minutes. The dried hair tresses (1 g) were immersed in 100 g of a solution in which the test substance (the mixture of Example 1 or the mixture of Comparative Example 1 in Table 2 above) was dissolved at 0.1 wt % (wherein the solution is a solution in which the test substance (0.1 wt %) is dissolved in purified water (remaining amount) for about 30 minutes. The immersed hair tresses were rinsed in running water for 1 minute and then naturally dried for more than 12 hours. Thirty hair strands were randomly selected from each hair tresses treated with the test substance. Thirty hair strands were randomly selected from the control hair tresses that were not treated with the test substance. The tensile strength of each selected hair was measured using an MTT175 (manufactured by DiaStron) device.
The tensile strength was compared by applying the test substance (the above 5 types of tripeptides) to the hair using the same method as in ‘Experimental Example 2. (1) Measurement of tensile strength’.
as §1, with “(synthesized tripeptide)” for “(the mixture of Example 1 or the mixture of Comparative Example 1 in Table 2 above)”, “0.01” for “0.1”, “(0.01” for “(0.1”, “(residue) and ethanol (80 wt %))” for “(remaining amount)”
Specifically, the tripeptide was synthesized using the same method as the peptide synthesis method of ‘Experimental Example 3’ above, but palmitic acid was added to the N-terminus of the peptide (reagents: HBTU (Hexafluorophosphate Benzotriazole), NMM (N-Methylmorpholine), DMF (Dimethylformamide), 1 hour at room temperature, concentration 0.3 M), and a tripeptide with palmitic acid covalently bonded to the N-terminus (i.e., palmitoyl tripeptide) was synthesized. After that, the test substance (tripeptide with palmitic acid covalently bonded to the N-terminus) was applied to the hair and the tensile strength was compared using the same method as in ‘Experimental Example 3. (1) Measurement of tensile strength’.

hair structural proteins = experiment: Denaturation enthalpy of hair structural proteins by DSC; settings: bleached hair, test substance 0.01 wt % in purified water and ethanol (80 wt %), 30 minutes; FIG. 3
Protocol: The denaturation enthalpy of hair structural proteins was compared according to whether or not the test substance was treated using a DSC (Differential Scanning calorimetry) analyzer. DSC is used as an analysis method to confirm the stability of hair structural proteins. Damage to the hair reduces the stability of hair structural proteins and decreases the enthalpy of denaturation. Specifically, bleached hair tresses (1 g. manufactured by Beaulax) were prepared. The hair tresses were washed using a basic shampoo without a conditioning function, rinsed for 1 minute, and dried for 2 minutes. The dried hair tresses (1 g) were immersed in 100 g of a solution in which the test substance (mixture of Example 1 in Table 2 above) was dissolved at 0.01 wt % (at this time, the solution is a solution in which the mixture of Example 1 (0.01 wt %) is dissolved in purified water (residue) and ethanol (80 wt %)) for 30 minutes. The immersed hair tresses were rinsed in running water for 1 minute and then naturally dried for more than 12 hours. Each treated hair tress was cut into 1 mm lengths, placed in an aluminum high-pressure capsule with 3-5 mg of the cut hair tress and 6-15 mg of distilled water, and combined. […] The denaturation enthalpies of the prepared DSC samples were measured using a DSC (Discovery DSC 250, TA Instruments) device (50-190 degrees, 10 degrees/min).
The denaturation enthalpy was measured by the same method as in ‘Experimental Example 2. (2) Measurement of denaturation enthalpy’, but the denaturation enthalpy was compared by applying applied CWK tripeptide as a test substance to hair.
The denaturation enthalpy was measured by the same method as in ‘Experimental Example 2. (2) Measurement of denaturation enthalpy’, but the denaturation enthalpy was compared by applying a tripeptide with palmitic acid covalently bonded to the N-terminus (i.e. palmitoyl tripeptide) to hair as the test substance.

[3] = Tensile strength of heat-treated hair simulating eyebrows (Fibra.one); parameters: species or system human; settings: hair heat-treated at 160° C. 20 times, then 0.01 wt % test substance in purified water, about 30 minutes; FIG. 9
Protocol: (§2) Specifically, since it is difficult to obtain eyebrows to be used for evaluation directly from a living body, human hair corresponding to the thickness of eyebrows was selected through Fibra.one (manufactured by DiaStron). The length was prepared to a level that can be applied to a machine measuring tensile strength. Heat-treated hair was prepared by applying pressure by hand at 160° C. 20 times with a hair straightener to the prepared human hair tresses. Hair that had not been heat-treated was prepared as a control group (untreated hair in FIGS. 9 and 11). In Experimental Example 6, the untreated hair was not treated with the test substance.
(§3) After that, the heat-treated hair tresses were treated with the test substance, KCV (KCV-treated hair in FIGS. 9 and 11). Specifically, the prepared tresses (1 g, manufactured by Beaulax) were washed using a basic cleanser without conditioning function, rinsed for 1 minute, and dried for 2 minutes. […]
Specifically, 30 hair strands were randomly selected from each tress (KCV-treated hair) treated with the test substance. […] The tensile strength of each selected hair was measured using a Fibra.one (manufactured by DiaStron).

[4] = Elasticity (horizontal resistance) of heat-treated hair simulating eyebrows; parameters: species or system human; settings: hair heat-treated at 160° C. 20 times, then 0.01 wt % test substance in purified water, about 30 minutes; FIG. 11
Protocol: as §2, §3
The elasticity of KCV-treated hair, heat-damaged hair, and untreated hair was compared. Elasticity was defined as the horizontal resistance of hair, and elasticity was measured through each step of [Method for Measuring Hair Elasticity] below (see FIG. 10). […]

| Compound | tensile strength of hair compared to control bleached hair tresses [2] | denaturation enthalpy of hair structural protein compared to control hair (hair structural proteins) | also measured |
| --- | --- | --- | --- |
| CN(C)c1ccc(C=C2SC(=S)NC2=O)cc1 [5-(4-Dimethylaminobenzylidene) rhodanine] |  |  | penetration and binding in hair (colored areas) [1]: barely remained in the cuticle layer on the hair surface and did not fill the lost area of CMC inside the hair |
| CWK | significantly increased | significantly increased |  |
| palmitoyl-KCV [pal-KCV] | significantly increased | significantly increased |  |
| PCP [reference compound] | not significant |  |  |
| palmitoyl-CKF [pal-CKF] | significantly increased | significantly increased |  |
| CKF | significantly increased |  |  |
| KCL | significantly increased |  |  |
| palmitoyl-CWK [pal-CWK] | significantly increased | significantly increased |  |
| KCV | significantly increased |  | tensile strength (break load) per area compared to heat-damaged hair tresses [3]: significantly increased; elasticity compared to heat-damaged hair tresses [4]: significantly increased |

Reference: patent publication US12594228B2, “Composition for hair protection or hair strengthening” (AMOREPACIFIC CORPORATION, priority 2024, dated 2026)
